For assay [1], the target named is T1, Protein RecA (Mycobacterium tuberculosis, UniProt P9WHJ3).
T1 sequence (P9WHJ3 whole entry): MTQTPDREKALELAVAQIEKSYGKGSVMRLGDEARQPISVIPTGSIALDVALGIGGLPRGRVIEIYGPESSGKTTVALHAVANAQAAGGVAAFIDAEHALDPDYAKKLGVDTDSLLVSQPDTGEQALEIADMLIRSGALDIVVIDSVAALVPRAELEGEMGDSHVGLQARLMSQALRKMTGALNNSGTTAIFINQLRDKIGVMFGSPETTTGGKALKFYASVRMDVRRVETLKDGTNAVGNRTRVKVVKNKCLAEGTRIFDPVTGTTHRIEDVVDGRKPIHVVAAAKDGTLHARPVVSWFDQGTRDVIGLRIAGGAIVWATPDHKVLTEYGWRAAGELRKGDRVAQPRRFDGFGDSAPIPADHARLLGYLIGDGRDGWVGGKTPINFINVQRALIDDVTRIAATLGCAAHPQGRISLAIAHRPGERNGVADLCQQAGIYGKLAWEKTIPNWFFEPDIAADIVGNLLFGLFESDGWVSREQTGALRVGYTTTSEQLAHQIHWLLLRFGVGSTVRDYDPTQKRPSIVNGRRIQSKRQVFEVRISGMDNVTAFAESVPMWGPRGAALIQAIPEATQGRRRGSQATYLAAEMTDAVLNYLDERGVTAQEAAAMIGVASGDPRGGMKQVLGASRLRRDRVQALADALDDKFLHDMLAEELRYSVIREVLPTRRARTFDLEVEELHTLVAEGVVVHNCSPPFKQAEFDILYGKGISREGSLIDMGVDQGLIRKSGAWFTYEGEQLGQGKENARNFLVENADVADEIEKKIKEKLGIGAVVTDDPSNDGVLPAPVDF
Put plainly: Fluorescence Cell-Free Homogeneous Dose Retest to Identify Inhibitors of RecA-Intein Splicing Activity. [Related pubchem assays (depositor defined):AID2097, AID2223, AID489010, AID492950]. Type of assay: functional.

Assay [2] has as its target T2, Replicative DNA helicase DnaB (Mycobacterium tuberculosis, UniProt P9WMR3).
T2 sequence (P9WMR3 whole entry): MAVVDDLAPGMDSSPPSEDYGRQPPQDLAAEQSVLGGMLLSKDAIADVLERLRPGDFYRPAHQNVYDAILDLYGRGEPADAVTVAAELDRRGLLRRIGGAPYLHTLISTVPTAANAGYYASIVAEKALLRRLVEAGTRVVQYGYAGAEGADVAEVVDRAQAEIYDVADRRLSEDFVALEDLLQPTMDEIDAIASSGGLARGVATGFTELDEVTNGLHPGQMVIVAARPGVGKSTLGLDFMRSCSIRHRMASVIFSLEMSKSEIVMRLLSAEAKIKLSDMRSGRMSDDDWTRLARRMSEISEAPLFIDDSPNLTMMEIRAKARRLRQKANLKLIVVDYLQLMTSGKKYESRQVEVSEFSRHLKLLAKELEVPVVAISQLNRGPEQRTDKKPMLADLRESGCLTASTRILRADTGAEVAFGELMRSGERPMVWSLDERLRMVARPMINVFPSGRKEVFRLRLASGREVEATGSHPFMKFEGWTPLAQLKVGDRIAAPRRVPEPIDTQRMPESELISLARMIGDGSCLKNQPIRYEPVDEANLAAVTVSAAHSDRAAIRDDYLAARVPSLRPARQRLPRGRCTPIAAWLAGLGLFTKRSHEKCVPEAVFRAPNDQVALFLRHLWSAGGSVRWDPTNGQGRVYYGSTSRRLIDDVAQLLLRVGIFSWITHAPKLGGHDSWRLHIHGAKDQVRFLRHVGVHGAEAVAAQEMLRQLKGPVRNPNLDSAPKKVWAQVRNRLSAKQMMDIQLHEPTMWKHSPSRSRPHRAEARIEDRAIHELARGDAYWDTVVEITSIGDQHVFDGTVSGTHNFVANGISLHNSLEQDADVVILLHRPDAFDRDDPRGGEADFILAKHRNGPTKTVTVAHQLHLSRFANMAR
In words: DnaB intein splicing inhibitors, dose response, biochemical, cell-free fluorescence (AID 449749). Type of assay: functional.

Assay [3] addresses T3, Protein skinhead-1 (Caenorhabditis elegans, UniProt P34707).
T3 sequence (P34707 whole entry): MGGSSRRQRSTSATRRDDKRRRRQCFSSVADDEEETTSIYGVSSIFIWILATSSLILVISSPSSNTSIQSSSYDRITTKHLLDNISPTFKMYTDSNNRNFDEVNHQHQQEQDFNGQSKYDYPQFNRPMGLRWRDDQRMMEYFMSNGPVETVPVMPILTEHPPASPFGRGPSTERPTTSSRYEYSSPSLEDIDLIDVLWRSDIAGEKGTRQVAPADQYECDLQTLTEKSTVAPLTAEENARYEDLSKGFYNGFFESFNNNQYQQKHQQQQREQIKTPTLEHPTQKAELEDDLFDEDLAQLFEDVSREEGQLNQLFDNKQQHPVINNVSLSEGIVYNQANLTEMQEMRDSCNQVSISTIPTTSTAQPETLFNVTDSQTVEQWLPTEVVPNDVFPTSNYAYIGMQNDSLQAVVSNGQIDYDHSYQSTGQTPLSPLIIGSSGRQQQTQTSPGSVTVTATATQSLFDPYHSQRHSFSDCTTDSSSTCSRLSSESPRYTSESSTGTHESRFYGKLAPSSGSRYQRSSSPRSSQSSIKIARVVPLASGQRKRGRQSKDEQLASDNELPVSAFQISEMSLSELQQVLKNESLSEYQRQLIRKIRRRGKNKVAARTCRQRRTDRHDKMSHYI
Type of assay: functional.

Assay [4] in a line: Luminescence Cell-Based Dose Retest to Confirm Inhibitors of Cancer Stem Cells. [Related pubchem assays (depositor defined):AID2717, AID2721]. Type of assay: functional. The following applies: Homo sapiens.
Assay [5] in a line: P. falciparum Dd2 growth inhibitors, dose response, SYBR Green, cherry-picked samples (AID 1159567). Type of assay: functional, cell-based.
In assay [6] the target is T4, Polyadenylate-binding protein 1 (Homo sapiens, UniProt P11940). In words: PABP1 MLLE–PAM2 interaction inhibitors, dose response, miRNA deadenylation inhibitor project, biochemical, fluorescence polarization, Cy5-PAM2 peptide, secondary (AID 602260). Type of assay: functional. Conditions: read-out: IC50_Mean. Background: In fluorescence polarisation assays a small probe gives low polarisation when free and higher when bound to something large.
T4 sequence (P11940 whole entry): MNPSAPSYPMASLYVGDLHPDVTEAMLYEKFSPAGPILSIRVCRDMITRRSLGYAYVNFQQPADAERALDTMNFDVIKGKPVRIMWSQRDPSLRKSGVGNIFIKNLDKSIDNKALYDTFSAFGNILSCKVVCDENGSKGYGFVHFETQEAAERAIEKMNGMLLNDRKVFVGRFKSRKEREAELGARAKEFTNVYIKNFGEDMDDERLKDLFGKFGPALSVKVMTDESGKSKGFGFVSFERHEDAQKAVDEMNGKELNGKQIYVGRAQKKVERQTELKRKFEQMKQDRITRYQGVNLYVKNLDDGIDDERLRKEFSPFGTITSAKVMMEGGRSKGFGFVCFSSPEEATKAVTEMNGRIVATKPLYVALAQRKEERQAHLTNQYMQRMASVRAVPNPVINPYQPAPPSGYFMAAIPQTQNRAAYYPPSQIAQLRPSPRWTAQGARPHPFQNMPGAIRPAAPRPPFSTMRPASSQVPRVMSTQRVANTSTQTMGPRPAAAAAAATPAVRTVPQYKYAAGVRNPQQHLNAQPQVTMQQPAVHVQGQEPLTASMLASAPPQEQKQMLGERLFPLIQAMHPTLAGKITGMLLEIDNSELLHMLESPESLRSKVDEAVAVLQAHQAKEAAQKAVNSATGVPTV

Assay [7] addresses T4, Polyadenylate-binding protein 1. Put plainly: PABP1 MLLE–PAM2 binding inhibitor potency, dose response, biochemical, fluorescence polarization, FITC-PAM2 peptide (AID 602259). Type of assay: functional. Conditions: read-out: IC50_Mean.
For assay [8], the target named is Cytochrome P450 3A4 (Homo sapiens, UniProt P08684).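 Further: CYP3A4 tested as one member of a cytochrome P450 panel screen.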
Chain of Cytochrome P450 3A4 (P08684 whole entry): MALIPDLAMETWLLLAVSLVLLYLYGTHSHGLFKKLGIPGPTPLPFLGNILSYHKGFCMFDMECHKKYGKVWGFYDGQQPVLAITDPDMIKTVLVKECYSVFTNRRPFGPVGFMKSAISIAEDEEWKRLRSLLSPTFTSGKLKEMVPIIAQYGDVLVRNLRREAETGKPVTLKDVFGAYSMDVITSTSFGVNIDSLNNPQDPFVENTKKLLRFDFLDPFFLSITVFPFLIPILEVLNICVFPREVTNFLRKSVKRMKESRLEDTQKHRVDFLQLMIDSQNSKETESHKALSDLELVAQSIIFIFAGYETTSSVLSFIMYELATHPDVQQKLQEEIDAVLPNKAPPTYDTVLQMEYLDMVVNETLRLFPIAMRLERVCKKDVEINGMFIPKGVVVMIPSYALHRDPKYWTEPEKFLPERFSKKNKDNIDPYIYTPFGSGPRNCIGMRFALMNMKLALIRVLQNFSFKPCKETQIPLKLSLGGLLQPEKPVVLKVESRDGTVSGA
Assay [9] addresses Cytochrome P450 2D6 (Homo sapiens, UniProt P10635).
For assay [10], the target named is T5, Cytochrome P450 1A2 (Homo sapiens, UniProt P05177).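 Further: PubChem cytochrome P450 panel assay, CYP1A2 panel member.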
T5 sequence (P05177 whole entry): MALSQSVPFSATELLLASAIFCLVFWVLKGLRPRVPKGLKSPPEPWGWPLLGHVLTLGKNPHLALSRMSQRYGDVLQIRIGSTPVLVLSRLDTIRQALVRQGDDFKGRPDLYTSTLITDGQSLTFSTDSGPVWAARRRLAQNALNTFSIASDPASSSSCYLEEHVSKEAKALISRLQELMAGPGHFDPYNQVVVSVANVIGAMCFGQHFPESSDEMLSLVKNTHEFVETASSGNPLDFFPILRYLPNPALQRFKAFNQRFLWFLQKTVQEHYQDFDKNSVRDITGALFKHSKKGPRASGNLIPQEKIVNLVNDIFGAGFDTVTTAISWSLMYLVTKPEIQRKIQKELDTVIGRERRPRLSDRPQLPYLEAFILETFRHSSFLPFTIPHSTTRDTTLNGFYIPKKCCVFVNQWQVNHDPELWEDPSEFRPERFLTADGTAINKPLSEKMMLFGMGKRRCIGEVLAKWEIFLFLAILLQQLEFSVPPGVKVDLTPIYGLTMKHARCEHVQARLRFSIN

The nature of assay [11]: inhibitors of intracellular T. cruzi replication, confirmation, NIH3T3 host cells, beta-gal luminescence (AID 2044).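 Further: intracellular parasites grown in NIH/3T3 mouse fibroblasts as host cells; luminescent beta-galactosidase reporter signal from transgenic T. cruzi replicating inside host cells; inhibitors lower the luminescence signal.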 Type of assay: functional, cell-based.
The target in assay [12] is T6, Heat shock factor protein 1 (Mus musculus, UniProt P38532).
T6 sequence (P38532 whole entry): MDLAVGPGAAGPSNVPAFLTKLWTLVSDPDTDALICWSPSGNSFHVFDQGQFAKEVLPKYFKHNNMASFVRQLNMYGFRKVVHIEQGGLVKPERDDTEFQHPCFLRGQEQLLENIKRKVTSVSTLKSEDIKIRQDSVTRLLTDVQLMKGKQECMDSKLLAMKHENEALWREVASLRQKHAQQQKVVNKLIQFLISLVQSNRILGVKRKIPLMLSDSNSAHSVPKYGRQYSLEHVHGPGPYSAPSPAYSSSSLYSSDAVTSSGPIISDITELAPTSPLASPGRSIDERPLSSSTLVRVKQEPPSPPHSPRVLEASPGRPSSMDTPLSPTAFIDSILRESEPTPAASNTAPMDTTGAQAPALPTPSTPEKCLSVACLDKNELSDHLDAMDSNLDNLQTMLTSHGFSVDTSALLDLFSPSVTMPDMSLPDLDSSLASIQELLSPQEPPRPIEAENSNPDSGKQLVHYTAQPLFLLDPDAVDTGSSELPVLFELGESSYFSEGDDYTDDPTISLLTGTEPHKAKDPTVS
In words: inhibition of MG132-induced HSE-luciferase signal, confirmation, cell-based, NIH3T3, luminescence, dose retest (AID 2382).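 Further: NIH3T3 fibroblasts with HSF1-driven luciferase reporter stressed by proteasome inhibitor MG132; luminescence from HSF1-driven luciferase expression after 8 hours of MG132 stress.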 Type of assay: functional.

A short description of assay [13]: cytotoxicity toward NIH3T3 fibroblasts, dose response, counter-screen, cell-based, ATP luminescence, mouse fibroblasts (AID 2010).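 Further: cells exposed to compound for about 90 hours before reading.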 Type of assay: functional. A general note: A counterscreen serves to expose hits that act by an unwanted route or on another target.

Activity calls are given as the source filed them. Where only a bound is given, the exact number is not on record here.

Chain of Cytochrome P450 2D6 (P10635 whole entry): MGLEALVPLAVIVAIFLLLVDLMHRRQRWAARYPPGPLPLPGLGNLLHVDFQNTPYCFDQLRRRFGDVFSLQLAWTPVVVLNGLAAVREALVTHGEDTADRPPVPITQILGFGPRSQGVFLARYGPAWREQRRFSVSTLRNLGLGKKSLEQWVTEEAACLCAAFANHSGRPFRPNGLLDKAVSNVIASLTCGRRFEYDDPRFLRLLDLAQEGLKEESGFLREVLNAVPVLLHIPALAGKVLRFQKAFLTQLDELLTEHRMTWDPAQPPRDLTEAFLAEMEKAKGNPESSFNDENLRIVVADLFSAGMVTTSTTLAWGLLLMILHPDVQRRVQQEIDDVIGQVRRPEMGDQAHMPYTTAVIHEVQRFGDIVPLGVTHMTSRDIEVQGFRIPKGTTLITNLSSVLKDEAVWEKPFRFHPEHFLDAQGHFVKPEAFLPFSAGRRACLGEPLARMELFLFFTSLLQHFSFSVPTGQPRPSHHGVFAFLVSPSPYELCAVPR

As a reminder, the EC50 is the concentration that produces a half-maximal response. What is called AC50 is the concentration giving half of the maximal activity seen. Turning to `COc1cc(/C=C(\C#N)c2nc3ccccc3o2)ccc1O`, the 50% effective concentration (EC50) in [1] was 2.41 µM (active). The AC50 in assay [2] was > 380 µM (inactive).

Regarding `Cn1nccc1-c1ccc(C(=O)Nc2cccc(NS(C)(=O)=O)c2)c2occc12`, the IC50 in assay [3] was > 100 µM (inactive).

Consider `CNc1ccccc1C(C)(C)c1cc(-c2cc(C)cc(C)c2)no1`, for which, in [4], the AC50 is 13.3 µM (active).

As for `Cc1cc2ccccc2n1CCNC(=O)C1CC1`, the IC50 in [3] is > 100 µM (inactive).

As for `Cc1ccccc1S(=O)(=O)N1CC(=O)N2[C@H](CO)[C@H](c3ccc(C#CC4CC4)cc3)[C@@H]2C1`, the AC50 in assay [5] is 8.89 µM (active).

With `Cc1cccc2c1NC(=O)/C2=C\C(=O)c1cccs1`, the AC50 in [4] was 5.12 µM (active).

Consider `O=C(Nc1ccc(Nc2ccccc2)cc1)c1cccc(F)c1`, for which, in assay [4], the half-maximal activity concentration (AC50) is 3.9 µM (active).

Take `C[C@H](CO)N1C[C@H](C)[C@H](CN(C)S(=O)(=O)c2cccs2)OCc2ccccc2-c2c(n(C)c3ccccc23)C1=O`: in assay [5], the AC50 was 26.1 µM (active).

For the compound `CC1(Cc2cccc(C(F)(F)F)c2)C(=O)Nc2ccc(-c3ccc(F)c(Cl)c3)cc21` (stereo not drawn), in assay [3], the IC50 was > 100 µM (inactive).

`Fc1ccc2c(c1)c1nnc(S)nc1n2CCc1ccccc1`: the IC50 in assay [6] and in [7] was > 66 µM (inactive) in each case.

For `C[C@H](CO)N1C[C@H](C)[C@@H](CN(C)CC2CCCCC2)Oc2ccc(NC(=O)Nc3ccc(F)cc3)cc2CC1=O`, the AC50 in assay [5] was 6.76 µM (active).

Consider `Cc1c(NC(=O)Oc2ccccc2)sc(=S)n1C`, for which the IC50 in assay [6] and in assay [7] was > 66 µM (inactive) in each case.

For the compound `CCC(=O)Nc1ccc2c(c1)OC[C@@H](C)N(Cc1cccc(F)c1)C[C@@H](C)[C@H](OC)CN(C)C2=O`, the AC50 in [5] was 3.64 µM (active).

Consider `O=[N+]([O-])c1cccc(NC(S)=Nc2nc(-c3ccccc3Cl)cs2)c1`, for which the IC50 in [6] and in [7] was > 66 µM (inactive) in each case.

`C[C@@H]1CCC(=O)N(CC[C@H](Sc2ccc(Br)cc2)c2ccccc2)CC1`: in assay [4], the AC50 was 5.03 µM (active).

On to `O=C(CSc1nc2ccccc2c(=O)n1CCCO)NCc1ccccc1`, for which the IC50 in [6] and in assay [7] was > 66 µM (inactive) each time. The AC50 in assay [8] was 3.55 µM (inconclusive); in assay [9], 39.8 µM (inconclusive); in assay [10], 31.6 µM (inconclusive).

On to `COC(=O)C(C#N)C(c1cccnc1)c1c(C)n[nH]c1O` (stereo not drawn), for which, in [1], the EC50 is 1.2 µM (active). For the same compound, the AC50 in [2] is 3.08 µM (active).

As for `O=C(CSc1nc[nH]n1)Nc1ccc(Cl)c(Cl)c1`, in assay [3], the IC50 is > 100 µM (inactive).

As to `O=C(Nc1cccc(F)c1)N1CC(=O)N2[C@H](C1)[C@@H](c1ccc(C#CC3CC3)cc1)[C@@H]2CO`, the AC50 in assay [5] is 8.07 µM (active).

Consider `O=C(CCl)N1N=C(c2cccs2)CC1c1ccco1` (stereo not drawn), for which the EC50 in assay [11] is 1.98 µM (active); in assay [1] it was 4.21 µM (active); in assay [12] it was 6.29 µM (active); in assay [13] it was 4.92 µM (active). For the same compound, the AC50 in [2] was 25.1 µM (active).

`Fc1cccc(-c2cc3nc4c(c(NCc5ccco5)n3n2)CCCC4)c1`: in assay [4], the AC50 was 6.81 µM (active).

For `Clc1cccc(Nc2nc(-c3ccncc3)cs2)c1`, the EC50 in assay [11] is 0.714 µM (active); in assay [13] it was 5.87 µM (active). Also, in assay [4], the concentration at half-maximal activity (AC50) is 3.5 µM (active).

For `Cc1cccc(NC(=S)N/N=C/c2c[nH]c3ccccc23)c1`, the AC50 in assay [4] is 0.704 µM (active).

Turning to `Fc1ccc(SCCc2ccncc2)cc1`, the IC50 in assay [6] and in assay [7] was > 66 µM (inactive) in each case.

As for `CC(C)c1nc(SCC(=O)Nc2ccc(N3CCOCC3)cc2)c2ccccc2n1`, the IC50 in assay [6] and in assay [7] was > 66 µM (inactive) in each case.

In the case of `O=C(CSc1nnc(COc2cccc3ccccc23)o1)N1c2ccccc2CCc2ccccc21`, in [3], the IC50 is > 100 µM (inactive).

Source of the values: ChEMBL document CHEMBL1201862, “PubChem BioAssay data set” (2004).
